Literature values as cited in patent EP4209496A1, “NOVEL FLUORESCENT BODIPY COMPOUNDS DISPLAYING ABSORPTION AND EMISSION IN THE NIR REGION” (Université de Strasbourg, priority 2022, dated 2023).
Like-named read-outs stand apart in the source and are kept apart here.

SMILES	λem (solvent: PBS buffer) [nm]	φf (solvent: PBS buffer) [%]	λem (solvent: biological serum) [nm]	φf (solvent: biological serum) [%]
CCN1C(=CC=CC=CC=CC2=[N+](CCCCCC(=O)O)c3ccc(S(=O)(=O)O)cc3C2(C)C)C(C)(C)c2cc(S(=O)(=O)[O-])ccc21 [Cy7]	774	28	–	–
CC1(C)C(=CC=C2CCCC(C=CC3=[N+](CCCCCC(=O)[O-])c4ccc(S(=O)(=O)[O-])cc4C3(C)C)=C2Oc2ccc(S(=O)(=O)[O-])cc2)N(CCCCS(=O)(=O)[O-])c2ccc(S(=O)(=O)[O-])cc21.[Na+].[Na+].[Na+].[Na+] [IRDye800CW]	–	–	789	12
CC1(C)C(/C=C/C=C/C=C/C=C2\N(CCCCS(=O)(=O)O)c3ccc4ccccc4c3C2(C)C)=[N+](CCCCS(=O)(=O)[O-])c2ccc3ccccc3c21 [Indocyanine green]	–	–	822	9
CN(C)c1ccc2nc3ccc(=[N+](C)C)cc-3sc2c1 [Methylene blue]	–	–	686	10
